Results: ChEMBL document CHEMBL1909046, “DrugMatrix in vitro pharmacology data”

Assays:
[1] = molecular target: T1, C-X-C chemokine receptor type 1 (Homo sapiens, UniProt P25024); note: in other assays of this panel Not Active means under 50% inhibition at 10 µM
T1 sequence (P25024 whole entry): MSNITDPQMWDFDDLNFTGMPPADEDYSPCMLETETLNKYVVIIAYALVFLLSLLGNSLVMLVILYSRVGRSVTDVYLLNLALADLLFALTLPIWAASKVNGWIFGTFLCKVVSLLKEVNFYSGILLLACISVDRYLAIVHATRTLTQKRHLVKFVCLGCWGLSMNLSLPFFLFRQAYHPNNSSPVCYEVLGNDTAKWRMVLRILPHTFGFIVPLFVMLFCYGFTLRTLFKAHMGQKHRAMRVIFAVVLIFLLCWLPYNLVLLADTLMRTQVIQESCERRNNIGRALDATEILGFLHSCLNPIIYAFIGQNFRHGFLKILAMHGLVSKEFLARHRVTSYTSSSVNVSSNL

[2] = DRUGMATRIX: Glutamate, NMDA, Phencyclidine radioligand binding (ligand: [3H] TCP); format: cell membranes, Rattus norvegicus, Wistar, Cerebral cortex, Membrane; settings: Not Active = under 50% inhibition at 10 µM
[3] = molecular target: Mu-type opioid receptor (Homo sapiens, UniProt P35372); assay: DRUGMATRIX: Opiate mu (OP3, MOP) radioligand binding (ligand: [3H] Diprenorphine); format: cell membranes, CHO-K1, Membrane; settings: Not Active = under 50% inhibition at 10 µM
Mu-type opioid receptor, sequence (P35372 whole entry): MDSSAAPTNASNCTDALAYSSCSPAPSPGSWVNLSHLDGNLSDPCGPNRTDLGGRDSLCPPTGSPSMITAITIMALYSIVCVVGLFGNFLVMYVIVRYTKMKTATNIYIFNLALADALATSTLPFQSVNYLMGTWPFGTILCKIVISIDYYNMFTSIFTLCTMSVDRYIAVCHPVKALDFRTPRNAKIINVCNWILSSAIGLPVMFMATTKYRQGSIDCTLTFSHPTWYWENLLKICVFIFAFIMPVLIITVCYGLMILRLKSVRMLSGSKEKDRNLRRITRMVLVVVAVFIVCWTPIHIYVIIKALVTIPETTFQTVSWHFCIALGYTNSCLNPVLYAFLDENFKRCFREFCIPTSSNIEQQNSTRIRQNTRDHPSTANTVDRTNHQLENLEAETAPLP

[4] = molecular target: Matrix metalloproteinase-9 (Homo sapiens, UniProt P14780); format: cell-based;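 note: inhibition of isolated MMP-9 enzyme activity toward a synthetic peptide substrate, from the DrugMatrix protease screening panel; in other assays of this panel Not Active means under 50% inhibition at 10 µM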
Matrix metalloproteinase-9, sequence (P14780 whole entry): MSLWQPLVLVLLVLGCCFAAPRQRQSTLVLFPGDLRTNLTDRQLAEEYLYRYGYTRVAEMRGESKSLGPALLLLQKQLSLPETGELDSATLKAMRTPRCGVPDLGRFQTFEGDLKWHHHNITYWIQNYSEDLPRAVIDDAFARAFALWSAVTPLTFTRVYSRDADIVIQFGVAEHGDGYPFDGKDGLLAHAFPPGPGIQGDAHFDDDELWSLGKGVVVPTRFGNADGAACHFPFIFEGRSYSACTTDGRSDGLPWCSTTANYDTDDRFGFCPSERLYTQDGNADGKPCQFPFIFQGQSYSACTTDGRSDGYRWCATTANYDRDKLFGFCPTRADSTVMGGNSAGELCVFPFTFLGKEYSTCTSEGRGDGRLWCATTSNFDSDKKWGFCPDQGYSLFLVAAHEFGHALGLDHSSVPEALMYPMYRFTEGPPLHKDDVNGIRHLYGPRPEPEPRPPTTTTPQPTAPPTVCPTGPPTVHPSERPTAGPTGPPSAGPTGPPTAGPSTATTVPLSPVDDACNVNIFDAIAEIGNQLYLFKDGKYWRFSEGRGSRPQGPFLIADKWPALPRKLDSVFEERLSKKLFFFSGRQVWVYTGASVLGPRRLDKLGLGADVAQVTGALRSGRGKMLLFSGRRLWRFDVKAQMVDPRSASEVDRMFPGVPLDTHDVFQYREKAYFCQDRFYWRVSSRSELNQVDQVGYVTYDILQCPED

[5] = molecular target: Protein kinase C alpha type (Homo sapiens, UniProt P17252); format: cell-based; settings: sf9;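 note: inhibition of PKCalpha kinase activity measured in an enzyme assay with histone as the phosphorylation substrate; in other assays of this panel Not Active means under 50% inhibition at 10 µM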
[6] = molecular target: T2, Adenosine receptor A3 (Homo sapiens, UniProt P0DMS8); format: cell membranes, CHO-K1, Membrane;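 note: radioligand binding assay with AB-MECA serving as the labeled ligand; in other assays of this panel Not Active means under 50% inhibition at 10 µM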
T2 sequence (P0DMS8 whole entry): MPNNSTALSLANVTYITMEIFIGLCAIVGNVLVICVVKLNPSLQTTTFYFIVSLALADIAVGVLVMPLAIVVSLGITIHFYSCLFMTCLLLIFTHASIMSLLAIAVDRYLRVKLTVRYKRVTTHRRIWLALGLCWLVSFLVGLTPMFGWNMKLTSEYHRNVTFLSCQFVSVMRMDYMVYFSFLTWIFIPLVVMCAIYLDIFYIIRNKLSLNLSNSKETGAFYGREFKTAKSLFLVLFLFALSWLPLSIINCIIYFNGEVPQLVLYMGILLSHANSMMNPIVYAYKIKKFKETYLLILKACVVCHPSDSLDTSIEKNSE

[7] = molecular target: Cytochrome P450 2C19 (Homo sapiens, UniProt P33261); settings: bti-tn-5b1-4; note: in other assays of this panel Not Active means under 50% inhibition at 10 µM
Cytochrome P450 2C19, sequence (P33261 whole entry): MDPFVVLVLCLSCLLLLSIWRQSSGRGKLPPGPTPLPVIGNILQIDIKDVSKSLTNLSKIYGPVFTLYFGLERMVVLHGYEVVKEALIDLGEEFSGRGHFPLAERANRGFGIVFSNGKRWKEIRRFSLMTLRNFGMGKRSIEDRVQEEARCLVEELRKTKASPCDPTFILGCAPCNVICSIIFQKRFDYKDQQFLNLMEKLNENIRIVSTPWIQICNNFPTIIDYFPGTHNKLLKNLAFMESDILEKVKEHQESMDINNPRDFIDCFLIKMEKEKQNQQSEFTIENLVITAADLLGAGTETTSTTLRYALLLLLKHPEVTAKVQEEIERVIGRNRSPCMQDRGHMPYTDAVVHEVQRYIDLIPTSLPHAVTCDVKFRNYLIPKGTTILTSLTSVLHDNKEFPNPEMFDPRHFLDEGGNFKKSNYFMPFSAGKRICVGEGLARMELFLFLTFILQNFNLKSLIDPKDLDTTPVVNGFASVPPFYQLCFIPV

[8] = molecular target: Voltage-gated inwardly rectifying potassium channel KCNH2 (Homo sapiens, UniProt Q12809); settings: hek293; note: in other assays of this panel Not Active means under 50% inhibition at 10 µM
Voltage-gated inwardly rectifying potassium channel KCNH2, sequence (Q12809 whole entry): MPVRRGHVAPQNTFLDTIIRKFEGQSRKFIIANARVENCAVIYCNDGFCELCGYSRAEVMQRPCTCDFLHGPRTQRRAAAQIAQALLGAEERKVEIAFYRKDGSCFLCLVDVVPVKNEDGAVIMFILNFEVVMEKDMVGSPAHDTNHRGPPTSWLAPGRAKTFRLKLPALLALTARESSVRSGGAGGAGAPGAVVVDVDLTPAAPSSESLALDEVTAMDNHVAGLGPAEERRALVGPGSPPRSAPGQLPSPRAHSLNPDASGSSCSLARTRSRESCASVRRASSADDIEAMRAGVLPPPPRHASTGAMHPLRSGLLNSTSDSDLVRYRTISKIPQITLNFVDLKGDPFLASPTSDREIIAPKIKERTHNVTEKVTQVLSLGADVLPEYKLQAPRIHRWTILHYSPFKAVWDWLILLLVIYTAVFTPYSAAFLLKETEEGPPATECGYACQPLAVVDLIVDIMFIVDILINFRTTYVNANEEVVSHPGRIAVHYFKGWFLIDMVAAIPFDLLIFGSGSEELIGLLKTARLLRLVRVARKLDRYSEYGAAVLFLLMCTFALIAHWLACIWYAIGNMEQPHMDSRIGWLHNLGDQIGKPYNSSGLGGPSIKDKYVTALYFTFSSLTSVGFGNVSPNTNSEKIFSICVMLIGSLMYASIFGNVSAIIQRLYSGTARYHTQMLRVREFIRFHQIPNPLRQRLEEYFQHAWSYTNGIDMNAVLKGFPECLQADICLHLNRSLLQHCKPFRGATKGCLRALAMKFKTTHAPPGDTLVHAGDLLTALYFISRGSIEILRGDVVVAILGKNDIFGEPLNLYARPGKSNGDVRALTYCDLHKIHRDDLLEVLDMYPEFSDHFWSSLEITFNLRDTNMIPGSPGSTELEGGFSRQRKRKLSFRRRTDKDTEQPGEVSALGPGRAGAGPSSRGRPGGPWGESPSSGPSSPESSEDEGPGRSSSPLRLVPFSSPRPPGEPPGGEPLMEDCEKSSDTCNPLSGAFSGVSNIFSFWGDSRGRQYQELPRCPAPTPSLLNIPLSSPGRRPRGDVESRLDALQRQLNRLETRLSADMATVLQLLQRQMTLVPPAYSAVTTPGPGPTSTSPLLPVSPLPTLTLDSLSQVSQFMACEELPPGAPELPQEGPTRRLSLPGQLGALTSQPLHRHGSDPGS

| Structure (SMILES) | IC50 [1] | IC50 [2] | Ki [2] | IC50 ([3]; cho-k1) | IC50 [4] | IC50 [5] | IC50 ([6]; cho-k1) | IC50 [7] | Ki [7] | IC50 [8] | Ki [8] | Ki [3] | IC50 ([3]; read-out: IC50) | IC50 ([6]; read-out: IC50) | Ki ([6]; read-out: Ki) |
| --- | --- | --- | --- | --- | --- | --- | --- | --- | --- | --- | --- | --- | --- | --- | --- |
| Cc1cn([C@H]2C=C[C@@H](CO)O2)c(=O)[nH]c1=O [STAVUDINE] | Not Active | Not Active | Not Active | Not Active | Not Active | Not Active | Not Active | Not Active | Not Active | Not Active | Not Active | – | – | – | – |
| Nc1nc(N)c2nc(-c3ccccc3)c(N)nc2n1 | Not Active | Not Active | Not Active | Not Active | Not Active | Not Active | Not Active | Not Active | Not Active | Not Active | Not Active | – | – | – | – |
| CN1C(=O)OC(C)(C)C1=O [TRIMETHADIONE] | Not Active | Not Active | Not Active | Not Active | Not Active | Not Active | Not Active | Not Active | Not Active | Not Active | Not Active | – | – | – | – |
| O=C(O)c1cc(/N=N/c2ccc(S(=O)(=O)Nc3ccccn3)cc2)ccc1O [SULFASALAZINE] | Not Active | Not Active | Not Active | Not Active | Not Active | Not Active | Not Active | Not Active | Not Active | Not Active | Not Active | – | – | – | – |
| CCN(CC)C(=S)SSC(=S)N(CC)CC | Not Active | Not Active | Not Active | – | Not Active | Not Active | – | Not Active | Not Active | Not Active | Not Active | 1420 nM | 3510 nM | 356 nM | 201 nM |
| CS(=O)(=O)c1ccc(C2=C(c3ccccc3)C(=O)OC2)cc1 [ROFECOXIB] | Not Active | Not Active | Not Active | Not Active | Not Active | Not Active | Not Active | Not Active | Not Active | Not Active | Not Active | – | – | – | – |
| Cc1cnc(NC(=O)C2=C(O)c3ccccc3S(=O)(=O)N2C)s1 [MELOXICAM] | Not Active | Not Active | Not Active | Not Active | Not Active | Not Active | Not Active | Not Active | Not Active | Not Active | Not Active | – | – | – | – |
| CO[C@@H]1[C@@H](OC)[C@H](C)[C@@](O)(CC(=O)O)O[C@H]1[C@H](C)[C@H]1O[C@@]2(CC[C@@](C)([C@H]3CC[C@@](C)([C@@H]4O[C@@H]([C@H]5O[C@](C)(O)[C@H](C)C[C@@H]5C)C[C@@H]4O[C@@H]4C[C@H](OC)[C@@H](OC)[C@H](C)O4)O3)O2)C[C@H](O)[C@H]1C.N [MADURAMICIN] | Not Active | Not Active | Not Active | Not Active | Not Active | Not Active | Not Active | Not Active | Not Active | Not Active | Not Active | – | – | – | – |
| CC[C@@]1(O)C(=O)OCc2c1cc1n(c2=O)Cc2cc3c(CN(C)C)c(O)ccc3nc2-1 [TOPOTECAN] | Not Active | Not Active | Not Active | Not Active | Not Active | Not Active | Not Active | Not Active | Not Active | Not Active | Not Active | – | – | – | – |
| C[N+]1(C)[C@@H]2C[C@@H](OC(=O)[C@H](CO)c3ccccc3)C[C@H]1[C@@H]1O[C@@H]12.[Br-] [METHSCOPOLAMINE BROMIDE] | Not Active | Not Active | Not Active | Not Active | Not Active | Not Active | Not Active | Not Active | Not Active | Not Active | Not Active | – | – | – | – |
| CC[C@H](C)[C@@H](CO[C@@H](Cc1ccccc1)C(=O)N[C@@H](CCS(C)(=O)=O)C(=O)OC(C)C)NC[C@@H](N)CS | Not Active | Not Active | Not Active | Not Active | Not Active | Not Active | Not Active | Not Active | Not Active | Not Active | Not Active | – | – | – | – |
| CCN1CCCC1CNC(=O)c1cc(S(N)(=O)=O)ccc1OC (stereo unspecified) [SULPIRIDE] | Not Active | Not Active | Not Active | Not Active | Not Active | Not Active | Not Active | Not Active | Not Active | Not Active | Not Active | – | – | – | – |
| C[C@]12CCC(=O)C[C@@H]1CC[C@@H]1[C@@H]2CC[C@]2(C)[C@@H](O)CC[C@@H]12 [STANOLONE] | Not Active | Not Active | Not Active | Not Active | Not Active | Not Active | Not Active | Not Active | Not Active | Not Active | Not Active | – | – | – | – |
| CC(N)C12CC3CC(CC(C3)C1)C2 (stereo unspecified) [RIMANTADINE] | Not Active | Not Active | Not Active | Not Active | Not Active | Not Active | Not Active | Not Active | Not Active | Not Active | Not Active | – | – | – | – |
| Cc1cccc(C)c1NC(=O)C(C)N (stereo unspecified) [TOCAINIDE] | Not Active | Not Active | Not Active | Not Active | Not Active | Not Active | Not Active | Not Active | Not Active | Not Active | Not Active | – | – | – | – |
| CCN(CC)CCNC(=O)c1cc(Cl)c(N)cc1OC [METOCLOPRAMIDE] | Not Active | Not Active | Not Active | Not Active | Not Active | Not Active | Not Active | Not Active | Not Active | Not Active | Not Active | – | – | – | – |
| Cc1ccc(Cl)c(Nc2ccccc2C(=O)O)c1Cl [MECLOFENAMIC ACID] | Not Active | Not Active | Not Active | Not Active | Not Active | Not Active | Not Active | Not Active | Not Active | Not Active | Not Active | – | – | – | – |
| CO[C@@]12[C@H](COC(N)=O)C3=C(C(=O)C(C)=C(N)C3=O)N1C[C@@H]1N[C@@H]12 [MITOMYCIN] | Not Active | Not Active | Not Active | Not Active | Not Active | Not Active | Not Active | Not Active | Not Active | Not Active | Not Active | – | – | – | – |
| COC(=O)Nc1nc2ccc(C(=O)c3ccccc3)cc2[nH]1 [MEBENDAZOLE] | Not Active | Not Active | Not Active | Not Active | Not Active | Not Active | Not Active | Not Active | Not Active | Not Active | Not Active | – | – | – | – |
